In this test the target is T1, WIP1 (wild-type p53-induced phosphatase 1, PPM1D) (Homo sapiens, UniProt O15297).
T1 construct: WIP1-ΔExon6-His-pET-23a+ construct
T1 sequence (O15297 1-420 limits assumed): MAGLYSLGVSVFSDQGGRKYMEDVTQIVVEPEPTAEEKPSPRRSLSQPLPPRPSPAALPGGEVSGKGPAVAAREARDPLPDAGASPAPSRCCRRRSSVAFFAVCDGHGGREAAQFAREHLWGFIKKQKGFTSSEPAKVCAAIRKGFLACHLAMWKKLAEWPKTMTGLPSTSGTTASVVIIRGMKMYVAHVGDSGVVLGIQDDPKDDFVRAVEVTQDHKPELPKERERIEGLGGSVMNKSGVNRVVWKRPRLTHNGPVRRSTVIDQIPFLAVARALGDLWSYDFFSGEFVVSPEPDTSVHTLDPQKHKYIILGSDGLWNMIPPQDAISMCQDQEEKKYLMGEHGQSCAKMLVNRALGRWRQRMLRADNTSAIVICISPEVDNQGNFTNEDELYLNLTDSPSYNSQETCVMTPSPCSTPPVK
The experiment in a line: in vitro phosphatase assay, free phosphate release (BIOMOL Green), H2AX pS139 phosphopeptide substrate (p53 pS15 peptide:[…]). Type of test: biochemical.

Drawing on PMC4319922, “WIP1 Phosphatase as a Potential Therapeutic Target in Neuroblastoma” (PLoS ONE, 2015), this text covers IC50 for one compound.

One may read the IC50 as the concentration that gives 50% inhibition.

In the case of `Cc1ncc(Cl)cc1NCc1ccc(C(=O)N[C@@H](CC2CCCC2)C(=O)NC2CC2)s1` [GSK2830371], the IC50 was 123 nM.
